The values below come from patent US8173665B2, “I-pheny 1-3,4-dihydropyrimidin-2(1H)-one derivatives and their use” (Bayer Pharma Aktiengesellschaft, priority 2002, dated 2012).

The target of assay [1] is T1, human neutrophil elastase (HNE) (Homo sapiens, UniProt P08246).
T1 construct: purchased SERVA Electrophoresis GmbH, Heidelberg, Germany #20927.01
T1 sequence (P08246 30-267): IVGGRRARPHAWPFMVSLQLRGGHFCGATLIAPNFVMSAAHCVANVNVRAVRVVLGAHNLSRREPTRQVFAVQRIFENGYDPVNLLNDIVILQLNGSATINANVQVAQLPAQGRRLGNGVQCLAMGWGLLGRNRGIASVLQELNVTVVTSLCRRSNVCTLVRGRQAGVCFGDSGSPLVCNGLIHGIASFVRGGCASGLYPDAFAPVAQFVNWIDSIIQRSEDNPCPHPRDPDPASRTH
As to the kind of experiment: In vitro inhibition of HNE using a fluorogenic peptide substrate (MeOSuc-Ala-Ala-Pro-Val-AMC). Type of assay: biochemical. The following applies: 384 MTP format. As for the experimental part:
I. In Vitro Enzyme Assays of Human Neutrophil Elastase (HNE) assay buffer: 0.1 M HEPES-NaOH buffer pH 7.4, 0.5 M NaCl, 0.1% (w/v) bovine serum albumin; suitable concentration (see below) of HNE (18 U/mg lyophil., #20927.01, SERVA Electrophoresis GmbH, Heidelberg, Germany) in assay buffer; suitable concentration (see below) of substrate in assay buffer; suitable concentration of test compounds diluted with assay buffer from a 10 mM stock solution in DMSO.
In Vitro Inhibition of HNE Using a Fluorogenic Peptide Substrate
Continuous Read-Out Signal, 384 MTP Assay Format
In this protocol, the elastase substrate MeOSuc-Ala-Ala-Pro-Val-AMC (#324740, Calbiochem-Novabiochem Corporation, Merck KGaA, Darmstadt, Germany) is used. The test solution is prepared by mixing 10 μl of test compound dilution, 20 μl of HNE enzyme dilution (final concentration 8-0.4 μU/ml, routinely 2.1 μU/ml) and 20 μl of substrate dilution (final concentration 1 mM-1 μM, routinely 20 μM), respectively. The solution is incubated for 0-2 hrs at 37° C. (routinely one hour). The fluorescence of the liberated AMC due to the enzymatic reaction is measured at 37° C. (TECAN spectra fluor plus plate reader). The rate of increase of the fluorescence (ex. 395 nm, em. 460 nm) is proportional to elastase activity. IC50 values are determined by RFU-versus-[I] plots. Km and Km(app.) values are determined by Lineweaver-Burk plots and converted to Ki values by Dixon plots.

The subject of assay [2] is human polymorphonuclear cells (PMNs). As to the kind of experiment: In vitro PMN elastolysis assay (3H-elastin). Type of assay: cell-based. The procedure:
In Vitro PMN Elastolysis Assay
This assay is used to determine the elastolytic potential of human polymorphonuclear cells (PMNs) and assess the proportion of degradation due to neutrophil elastase [cf. Z. W. She et al., Am. J. Respir. Cell. Mol. Biol. 9, 386-392 (1993)].
Tritiated elastin, in suspension, is coated on to a 96 well plate at 10 μg per well. Test and reference [ZD-0892 (J. Med. Chem. 40, 1876-1885, 3173-3181 (1997), WO 95/21855) and α1 protease inhibitor (α1PI)] compounds are added to the wells at the appropriate concentrations. Human PMNs are separated from peripheral venous blood of healthy donors and resuspended in culture media. The neutrophils are added to the coated wells at concentrations ranging between 1×10^6 to 1×10^5 cells per well. Porcine pancreatic elastase (1.3 μM) is used as a positive control for the assay, and α1PI (1.2 μM) is used as the positive inhibitor of neutrophil elastase. The cellular control is PMNs without compound at each appropriate cell density. The cells plus compounds are incubated in a humidified incubator at 37° C. for 4 hours. The plates are centrifuged to allow the harvest of cell supernatant only. […] The plates are dried until no liquid is visible in the wells and read in a beta counter for 3 minutes per well. […]
The compounds of this invention are evaluated for their inhibitory activity in this HNE-dependent model of neutrophil elastolysis.

A word on the IC50: it is the concentration at which inhibition is half-maximal. In the case of `CCOC(=O)C1=C(C)N(c2cccc(C(F)(F)F)c2)C(SCc2ccncc2)=NC1c1ccc(C#N)cc1` (stereo not shown) [Example 12, Ethyl 4-(4-cyanophenyl)-6-methyl-2-[(4-pyridinylmethyl)sulfanyl]-1-[3-(trifluoromethyl)phenyl]-1,4-dihydro-5-pyrimidinecarboxylate], the IC50 in assay [1] is 100 nM.
In turn, `CC1=C(C(=O)O)C(c2ccc(C#N)cc2)NC(=S)N1c1cccc(C(F)(F)F)c1` (stereo not shown) [Example 19, 4-(4-Cyanophenyl)-6-methyl-2-thioxo-1-[3-(trifluoromethyl)phenyl]-1,2,3,4-tetrahydropyrimidine-5-carboxylic acid] gave an IC50 in assay [1] of 30 nM.
Take `CCOC(=O)C1=C(C)N(c2cccc(C(F)(F)F)c2)C(SCCN(CC)CC)=NC1c1ccc(C#N)cc1` (stereo not shown) [Example 14, Ethyl 4-(4-cyanophenyl)-2-{[2-(diethylamino)ethyl]sulfanyl}-6-methyl-1-[3-(trifluoromethyl)phenyl]-1,4-dihydro-5-pyrimidinecarboxylate]: the IC50 in assay [1] amounted to 10 nM.
`CCOC(=O)C1=C(C)N(c2cccc(C(F)(F)F)c2)C(SCC)=NC1c1ccc(C#N)cc1` (stereo not shown) [Example 9] registered a 50% inhibitory concentration (IC50) in assay [1] of 40 nM.
In assay [1], `CCOC(=O)C1=C(C)N(c2cccc(C(F)(F)F)c2)C(=S)NC1c1ccc(C#N)cc1` (stereo not shown) [Example 3, Ethyl 4-(4-cyanophenyl)-6-methyl-2-thioxo-1-[3-(trifluoromethyl)phenyl]-1,2,3,4-tetrahydro-5-pyrimidinecarboxylate] returned an IC50 of 9 nM.
Same read-out and setting: then `CC(=O)C1=C(C)N(c2cccc(C(F)(F)F)c2)C(=S)NC1c1ccc(C#N)cc1` (stereo not shown) [Example 1, 4-{5-Acetyl-6-methyl-2-thioxo-1-[3-(trifluoromethyl)phenyl]-1,2,3,4-tetrahydro-4-pyrimidinyl}benzonitrile], with 13 nM; and `CCOC(=O)C1=C(C)N(c2cccc(C(F)(F)F)c2)C(SC)=NC1c1ccc(C#N)cc1C` (stereo not shown) [Example 31, Ethyl 4-(4-cyano-2-methylphenyl)-6-methyl-2-(methylsulfanyl)-1-[3-(trifluoromethyl)phenyl]-1,4-dihydro-5-pyrimidinecarboxylate], with 80 nM.
Still for that read-out and setting: then `CCOC(=O)C1=C(C)N(c2cccc(C(F)(F)F)c2)C(=S)N(C(=O)C2CCC2)C1c1ccc(C#N)cc1` (stereo not shown) [Example 29], with 10 nM; and `CCOC(=O)C1=C(C)N(c2cccc(C(F)(F)F)c2)C(SCc2ncc[nH]2)=NC1c1ccc(C#N)cc1` (stereo not shown) [Example 15, Ethyl 4-(4-cyanophenyl)-2-[(1H-imidazol-2-ylmethyl)sulfanyl]-6-methyl-1-[3-(trifluoromethyl)phenyl]-1,4-dihydro-5-pyrimidinecarboxylate], with 5 nM; and `CC1=C(C(N)=O)C(c2ccc(C#N)cc2)NC(=S)N1c1cccc(C(F)(F)F)c1` (stereo not shown) [Example 4, 4-(4-Cyanophenyl)-6-methyl-2-thioxo-1-[3-(trifluoromethyl)phenyl]-1,2,3,4-tetrahydro-5-pyrimidinecarboxamide], with 23 nM.
On the same count and under the same terms, then `CC1=C(C(=O)N(C)C)C(c2ccc(C#N)cc2)NC(=S)N1c1cccc(C(F)(F)F)c1` (stereo not shown) [Example 6, 4-(4-Cyanophenyl)-N,N,6-trimethyl-2-thioxo-1-[3-(trifluoromethyl)phenyl]-1,2,3,4-tetrahydro-5-pyrimidinecarboxamide], with 70 nM.
In the case of “α1PI: α1 protease inhibitor, used as the positive inhibitor of neutrophil elastase”, the “inhibition of elastolysis (mean±s.e.m.)” value in assay [2] (at 1.2 μM, n=3 different donors at 3.6×10^5 cells per well) stood at 83.46±3.97%.
`COc1ccc(C(=O)N[C@H](C(=O)N2CCC[C@H]2C(=O)N[C@H](C(=O)C(F)(F)F)C(C)C)C(C)C)cc1` [ZD-0892]: the IC50 in assay [2] (n=2 different donors at 3.6×10^5 cells per well, read-out: IC50 (mean±s.e.m.)) stood at 45.5 ± 7.75 nM.
`CCOC(=O)C1=C(C)N(c2cccc(Cl)c2)C(SCCCOC(N)=O)=NC1c1ccc(C#N)cc1` (stereo not shown) [Example 33]: in assay [1], the IC50 came out at 20 nM.
The compound `CCN(CC)CCOC(=O)C1=C(C)N(c2cccc(C(F)(F)F)c2)C(SC)=NC1c1ccc(C#N)cc1` (stereo not shown) [Example 58, 2-(Diethylamino)ethyl 4-(4-cyanophenyl)-6-methyl-2-(methylsulfanyl)-1-[3-(trifluoromethyl)phenyl]-1,4-dihydro-5-pyrimidinecarboxylate] had an IC50 in assay [1] of 12 nM.
Consider `CCOC(=O)C1=C(C)N(c2cccc(C(F)(F)F)c2)C(SC)=NC1c1ccc(C#N)cc1` (stereo not shown) [Example 7], for which the IC50 in assay [1] was determined as 10 nM.
